Experimental data from PubChem BioAssay AID1918945 (Molecular Pharmacology Branch, DTP, NCI, 2023).

Tested on: 883617-216-R-J1-PDC complex spheroid viability
Assay: Anticancer human tumor 883617-216-R-J1-PDC patient-derived bladder carcinoma cell line growth inhibition
Settings: for viability, T/C: stronger effect = lower value
Outline: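 Multicellular complex spheroids of tumor cells with human endothelial cells (HUVEC) and mesenchymal stem cells; the LSD1 inhibitor iadademstat was combined with standard-of-care or investigational agents. Top concentration at or near clinical Cmax, half-log dilutions; final DMSO ≤0.25%.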

[1] = curve of first compound, second compound 0.1 µM
[2] = curve of first compound, second compound 0.316 µM
[3] = curve of first compound, second compound 1 µM
[4] = curve of first compound, second compound 3.16 µM
[5] = curve of first compound, second compound 10 µM
[6] = second compound 0.1 µM, first compound 0.00316 µM
[7] = second compound 0.1 µM, first compound 0.01 µM
[8] = second compound 0.1 µM, first compound 0.0316 µM
[9] = second compound 0.1 µM, first compound 0.1 µM
[10] = second compound 0.316 µM, first compound 0.00316 µM
[11] = second compound 0.316 µM, first compound 0.01 µM
[12] = second compound 0.316 µM, first compound 0.0316 µM
[13] = second compound 0.316 µM, first compound 0.1 µM
[14] = second compound 1 µM, first compound 0.00316 µM
[15] = second compound 1 µM, first compound 0.01 µM
[16] = second compound 1 µM, first compound 0.0316 µM
[17] = second compound 1 µM, first compound 0.1 µM
[18] = second compound 3.16 µM, first compound 0.00316 µM
[19] = second compound 3.16 µM, first compound 0.01 µM
[20] = second compound 3.16 µM, first compound 0.0316 µM
[21] = second compound 3.16 µM, first compound 0.1 µM
[22] = second compound 10 µM, first compound 0.00316 µM
[23] = second compound 10 µM, first compound 0.01 µM
[24] = second compound 10 µM, first compound 0.0316 µM
[25] = second compound 10 µM, first compound 0.1 µM
[26] = second compound 0.1 µM, first compound 0.316 µM
[27] = second compound 0.1 µM, first compound 1 µM
[28] = second compound 0.316 µM, first compound 0.316 µM
[29] = second compound 0.316 µM, first compound 1 µM
[30] = second compound 1 µM, first compound 0.316 µM
[31] = second compound 1 µM, first compound 1 µM
[32] = second compound 3.16 µM, first compound 0.316 µM
[33] = second compound 3.16 µM, first compound 1 µM
[34] = second compound 10 µM, first compound 0.316 µM
[35] = second compound 10 µM, first compound 1 µM
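Note: exposure lasted seven days after three days of spheroid growth.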
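Throughout, for viability, T/C: 100% = DMSO vehicle control luminescence.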

| Structure (SMILES) | IC50 [1] | IC50 [2] | IC50 [3] | IC50 [4] | IC50 [5] | viability, T/C [6] | viability, T/C [7] | viability, T/C [8] | viability, T/C [9] | viability, T/C [10] | viability, T/C [11] | viability, T/C [12] | viability, T/C [13] | viability, T/C [14] | viability, T/C [16] | viability, T/C [17] | viability, T/C [20] | viability, T/C [21] | viability, T/C [24] | viability, T/C [25] | further results |
| --- | --- | --- | --- | --- | --- | --- | --- | --- | --- | --- | --- | --- | --- | --- | --- | --- | --- | --- | --- | --- | --- |
| CC[C@@]1(O)C(=O)OCc2c1cc1n(c2=O)Cc2cc3c(CN(C)C)c(O)ccc3nc2-1 + NC1CC1c1ccc(-c2cccc(O)c2)cc1 | 2.14 nM | 2.24 nM | 2.07 nM | 1.42 nM | 0.862 nM | 45.5% | 30.5% | 24.3% | 19.4% | 37.9% | 30.4% | 22.9% | 19.1% | 36.9% | 24.6% | 21.2% | 24.2% | 17.9% | 24.2% | 16.9% | viability, T/C (second compound 0.1 µM, first compound 0.000316 µM): 97.4%; viability, T/C (second compound 0.1 µM, first compound 0.001 µM): 61.4%; viability, T/C (second compound 0.316 µM, first compound 0.000316 µM): 94.8%; viability, T/C (second compound 0.316 µM, first compound 0.001 µM): 73.4%; viability, T/C (second compound 1 µM, first compound 0.000316 µM): 93.7%; viability, T/C (second compound 1 µM, first compound 0.001 µM): 71.5%; viability, T/C [15]: 27.2%; viability, T/C (second compound 3.16 µM, first compound 0.000316 µM): 93.8%; viability, T/C (second compound 3.16 µM, first compound 0.001 µM): 57.6%; viability, T/C [18]: 32.2%; viability, T/C [19]: 27.9%; viability, T/C (second compound 10 µM, first compound 0.000316 µM): 76.1%; viability, T/C (second compound 10 µM, first compound 0.001 µM): 42.2%; viability, T/C [22]: 35.3%; viability, T/C [23]: 26.6% |
| CC1COCCN1c1cc(-c2ccnn2C)c2ccnc(-c3ccn[nH]3)c2n1 (configuration not stated) + NC1CCC(NC2CC2c2ccccc2)CC1 | 39.5 nM | 32.1 nM | 33.8 nM | 44.3 nM | 45.8 nM | 85% | 62.2% | 55.7% | 41.2% | 89.8% | 62% | 53.6% | 40.4% | 81.8% | 50.4% | 43.8% | 51.3% | 47.2% | 52.7% | 45.5% | viability, T/C [26]: 33.5%; viability, T/C [27]: 31.5%; viability, T/C [28]: 34%; viability, T/C [29]: 30.8%; viability, T/C [15]: 60.2%; viability, T/C [30]: 35.1%; viability, T/C [31]: 28.4%; viability, T/C [18]: 76.3%; viability, T/C [19]: 59%; viability, T/C [32]: 36.1%; viability, T/C [33]: 28.3%; viability, T/C [22]: 88.4%; viability, T/C [23]: 66.7%; viability, T/C [34]: 32.1%; viability, T/C [35]: 25.5% |
| CC(C)c1c(-c2ccccc2)nc2c(C#N)c[nH]n2c1=O + NC1CCC(NC2CC2c2ccccc2)CC1 | > 10000 nM | > 10000 nM | > 10000 nM | > 10000 nM | > 10000 nM | – | – | 106% | 102% | – | – | 107% | 109% | – | 97.3% | 91.8% | 104% | 99.7% | 103% | 106% | viability, T/C [26]: 101%; viability, T/C [27]: 103%; viability, T/C (second compound 0.1 µM, first compound 3.16 µM): 97.5%; viability, T/C (second compound 0.1 µM, first compound 10 µM): 93.8%; viability, T/C [28]: 108%; viability, T/C [29]: 105%; viability, T/C (second compound 0.316 µM, first compound 3.16 µM): 103%; viability, T/C (second compound 0.316 µM, first compound 10 µM): 95%; viability, T/C [30]: 101%; viability, T/C [31]: 95%; viability, T/C (second compound 1 µM, first compound 3.16 µM): 93.6%; viability, T/C (second compound 1 µM, first compound 10 µM): 86%; viability, T/C [32]: 97.8%; viability, T/C [33]: 98.2%; viability, T/C (second compound 3.16 µM, first compound 3.16 µM): 91.2%; viability, T/C (second compound 3.16 µM, first compound 10 µM): 89.9%; viability, T/C [34]: 112%; viability, T/C [35]: 98.2%; viability, T/C (second compound 10 µM, first compound 3.16 µM): 95.2%; viability, T/C (second compound 10 µM, first compound 10 µM): 86.1% |
| NC1CC1c1ccc(-c2cccc(O)c2)cc1 (configuration not stated) | – | – | – | – | – | – | – | – | – | – | – | – | – | – | – | – | – | – | – | – | viability, T/C (compound 0.1 µM): 107%; IC50 (compound alone, run of 12/07/2021): > 10000 nM |
